The test system of one data set is peri-orbital skin. Description: Quantitative microtopography of skin casts, depth of deep wrinkles (photoaging). Type of data set: in vivo, human. As to the method: A significant adverse symptom of photoaging is the presence of deep wrinkles. […] In one exemplary protocol, an orbital patch containing CoQ10 in a delivery vehicle or carrier as described above is applied to one eye of a subject, and a control orbital patch containing a delivery vehicle alone is applied around the other eye. Casts are then prepared for quantitative microtopography [see, e.g., Hoppe, et al., J. Soc. Cosmetic Chemists 36: 105-123 (1985), incorporated herein by reference]. Photographs of the skin before treatment show deep wrinkles, which are characteristic of photoaging, whereas fine wrinkles are associated with chronological aging. Using microtopography to measure a reduction in the depth of wrinkles in aged skin, two important parameters can be calculated from the microtopography. They are: Rt which is the mean peak to valley measurement of a defined unit distance, and Rq which is the integrated area of the peaks and troughs. These measurements indicate the variation of the microtopography from a flat surface. […] In certain examples, treatment with an orbital patch containing 0.3% CoQ10 will results in at least a 25% reduction in the mean peak to valley depth of the skin and at least a 25% reduction in the Rq value, compared to controls.

The next data set deals with human skin. Kind of data set: Ultra weak photon emission (UPE) assay of skin after UVA irradiation. Type of data set: in vivo. The conditions noted are these: orbital patch with 0.3% CoQ10 once or twice daily for 7 days, 50 mJ/cm^2 UVA, vs delivery vehicle alone. The source says: Oxidative events in human skin in vivo following delivery of CoQ10 via a facial patch or mask of the invention are detected, for example, by means of ultra weak photon emission assay [Sauermann et al., Oxidants & Antioxidants, Methods in Enzymology, L. Packer, ed., Academic Press, 300: 419-428 (1999), incorporated herein by reference]. In the basal state, cells emit low levels of photons. When UVA irradiation is applied there is an excited state with a large increase in the level of photons that decay with time. The level of photons emitted is an indication of the antioxidant status of the skin. If there is an increase in antioxidants, the excitation is less and the level of photons emitted will be reduced. The ultra weak photon emission (UPE) is measured after UVA irradiation in two age groups: (1) aged 18-25 years, (2) aged 60-72 years.

The next data set concerns facial skin. Description: Corneocyte surface area (senile xerosis) after facial patch or mask treatment. Type of data set: in vivo. Particulars: patch or mask containing 0.3% CoQ10, once or twice daily for 7 days, vs delivery vehicle or carrier alone. An excerpt: Although the stratum corneum, the outermost layer of the epidermis, is continuously sloughed off and replaced in healthy individuals, it will display symptoms of aging in the underlying living cells in older subjects. The area of corneocytes, which make up the stratum corneum, is proportional to the time taken for the keratinocyte to differentiate and move from the basal layer to the stratum corneum. In aged skin, the time taken to move through the epidermis increases, and corneocytes become larger. The surface can develop fine lines and become dry and scaly (senile xerosis). As aging progresses, the surface area of corneocytes increases, and thus this value can be measured to determine the effectiveness of an anti-aging treatment (i.e., to decrease the transit time and corneocyte surface area).

For data set [1] the following is noted: intraduodenal, rats, with 1% (w/v) saline dispersion of polycarbophil; cited from earlier work.
Setting [2] is: orbital patch containing 0.3% CoQ10, compared to controls.

These results are taken from US20030167556A1, “Methods and devices for transdermal delivery of anti-aging compounds for treatment and prevention of facial or neck skin aging” (Consumers Choice Systems, Inc., priority 2002, published 2003).

`COC1=C(OC)C(=O)C(C/C=C(\C)CC/C=C(\C)CC/C=C(\C)CC/C=C(\C)CC/C=C(\C)CC/C=C(\C)CC/C=C(\C)CC/C=C(\C)CC/C=C(\C)CCC=C(C)C)=C(C)C1=O` [CoQ10, CoEnzyme Q10]: in the data set on peri-orbital skin (setting [2]), the “reduction in the Rq value” is at least 25% and the “reduction in the mean peak to valley depth of the skin (Rt)” value was at least 25%. In the data set on peri-orbital skin (patch containing 0.3% CoQ10 once daily, at least 2 hours each day, one week to six months, vs vehicle control), the “depth of deep wrinkles” value is “significantly reduced”. In the data set with human skin, the “levels of UPE compared to control level” value is listed as “significantly lower levels”. Further, in the data set on facial skin, the “corneocyte area over time” value is “significant decrease”.

Turning to “9-desglycinamide, 8-arginine vasopressin [DGAVP]”, the “increase in bioavailability compared to aqueous solution without polymer” value in data set [1] is 3-5 fold.
